Here are results for twelve molecules from ChEMBL document CHEMBL5365429, “Discovery of 5-sulfonyltetrazoles as neuroblastoma differentiation agents” (Bioorg Med Chem Lett, 2023).

SMILES strings stand for the structures. Activity calls are given as the source filed them. The calls are words filed in the database; no cut-off is given here.

Common to all, as to assay type: functional, cell-based
Assay [1] relates to BE(2)-C. In words: Induction of neuron differentiation in human BE2C cells assessed as neurite outgrowth by measuring neurite length at 25 uM measured after 4 days. The conditions noted are these: time 4.0 day.
The test system of assay [2] is BE(2)-C. In words: Antiproliferative activity against human BE2C cells assessed as reduction in cell viability at 25 uM measured after 4 days. As to conditions: time 4.0 day.
For assay [3], the system named is BE(2)-C. In words: Induction of neuron differentiation in human BE2C cells assessed as neurite outgrowth by measuring neurite length at 25 uM.
The subject of assay [4] is BE(2)-C. In words: Induction of neuron differentiation in human BE2C cells assessed as neurite outgrowth by measuring neurite length. The conditions noted are these: dose 50-200 µM.
For assay [5], the system named is BE(2)-C. In words: Antiproliferative activity against human BE2C cells assessed as reduction in cell viability. As to conditions: dose 50-200 µM.
In assay [6] the test system is BE(2)-C. In words: Antiproliferative activity against human BE2C cells assessed as reduction in cell viability at 25 uM.
For assay [7], the system named is BE(2)-C. In words: Induction of neuron differentiation in human BE2C cells assessed as neurite outgrowth by measuring neurite length at 25 uM by imaging analysis.

For `Cn1nnnc1SCC1CCC1`, the outcome in the assay on BE(2)-C [1] was inactive.

For the molecule `Cn1nnnc1SCC1CC1`, in the assay with BE(2)-C [1], the outcome was inactive.

Consider `CCSc1nnnn1C`, for which the result in the assay with BE(2)-C [1] was inactive.

Consider `Cn1nnnc1SCC#C[Si](C)(C)C`, for which, in the assay with BE(2)-C [1], the result was inactive.

Take `C=CCS(=O)(=O)c1nnnn1C`: the outcome with BE(2)-C [1] and with BE(2)-C [2] was Active.

Regarding `CSc1nnnn1C`, the outcome in the assay with BE(2)-C [1] was inactive.

As to `Cn1nnnc1S(C)(=O)=O`, the result with BE(2)-C [1] was Active.

As to `CCCSc1nnnn1C`, in the assay with BE(2)-C [1], the outcome was inactive.

As to `CCCS(=O)(=O)c1nnnn1C`, in the assay on BE(2)-C [1], the result was Active.

On to `C=CCSc1nnnn1C`, for which the result with BE(2)-C [1] was inactive.

For `Cn1nnnc1S(=O)(=O)CC1CCC1`, the result in the assay on BE(2)-C [1] was Active.

In the case of `CCS(=O)(=O)c1nnnn1C`, the result with BE(2)-C [3], in the assay on BE(2)-C [6] and in the assay with BE(2)-C [7] was Active. Further, the Activity result in the assay on BE(2)-C [4] and in the assay with BE(2)-C [5] was “Dose-Dependent Effect” throughout.
